Details in all cases: averaged IC50
In test [1] the target is His-tagged recombinant human AXL cytoplasmic domain (Homo sapiens (Human), UniProt P30530). As to the kind of experiment: AXL Enzyme Assay (LanthaScreen Eu Kinase Binding, TR-FRET). The essentials: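 LanthaScreen Eu kinase binding format, incubated 60 min at 22 °C and read by TR-FRET dual-wavelength emission ratio as percent of control. IC50 taken where a 4-parameter logistic fit crosses 50 POC.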
Background: In TR-FRET formats the signal depends on donor and acceptor labels being close together.

Test [2] concerns the target His-tagged recombinant human MER cytoplasmic domain (Homo sapiens (Human), UniProt Q12866). As to the kind of experiment: MER Enzyme Assay (LanthaScreen Eu Kinase Binding, TR-FRET). In outline: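 LanthaScreen Eu kinase binding (tracer displacement) assay with His-tagged human MER cytoplasmic domain, 60 min incubation at 22 °C. TR-FRET dual-wavelength emission ratio converted to percent of control; IC50 is where the 4-parameter logistic fit crosses 50 POC.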

The target of test [3] is GST-tagged recombinant human TYRO3 kinase domain (Homo sapiens (Human), UniProt Q06418). Nature of the test: TYRO3 Enzyme Assay (LanthaScreen Eu Kinase Binding, TR-FRET). The essentials: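 LanthaScreen Eu binding (tracer displacement) format read by TR-FRET after 60 min at 22 °C. Emission ratio converted to percent of control; IC50 taken where a 4-parameter logistic fit crosses 50 POC.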

The values below come from patent US11247990B1, “Bicyclic fused pyridine compounds as inhibitors of TAM kinases” (ARRAY BIOPHARMA INC., priority 2017, dated 2022).

Bounds are passed on as bounds.

Sequence of His-tagged recombinant human AXL cytoplasmic domain (P30530 473-894): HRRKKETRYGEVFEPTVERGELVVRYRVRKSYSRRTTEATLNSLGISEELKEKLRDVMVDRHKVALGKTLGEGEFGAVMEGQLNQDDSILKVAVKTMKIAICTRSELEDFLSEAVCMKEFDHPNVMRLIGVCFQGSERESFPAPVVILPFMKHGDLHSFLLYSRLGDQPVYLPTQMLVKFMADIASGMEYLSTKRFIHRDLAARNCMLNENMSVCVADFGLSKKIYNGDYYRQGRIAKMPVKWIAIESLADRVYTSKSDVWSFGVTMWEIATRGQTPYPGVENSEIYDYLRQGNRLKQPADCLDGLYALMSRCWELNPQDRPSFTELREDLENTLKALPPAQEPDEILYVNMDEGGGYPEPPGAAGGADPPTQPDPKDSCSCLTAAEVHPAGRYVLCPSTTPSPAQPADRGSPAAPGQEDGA
Sequence of GST-tagged recombinant human TYRO3 kinase domain (Q06418 518-790): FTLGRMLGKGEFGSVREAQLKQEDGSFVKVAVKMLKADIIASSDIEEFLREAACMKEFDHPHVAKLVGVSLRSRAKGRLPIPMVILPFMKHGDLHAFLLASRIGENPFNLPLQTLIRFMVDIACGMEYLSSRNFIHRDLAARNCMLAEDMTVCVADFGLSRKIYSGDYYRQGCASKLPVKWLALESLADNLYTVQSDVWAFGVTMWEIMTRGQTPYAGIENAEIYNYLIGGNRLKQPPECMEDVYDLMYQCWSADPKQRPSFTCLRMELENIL
Sequence of His-tagged recombinant human MER cytoplasmic domain (Q12866 527-999): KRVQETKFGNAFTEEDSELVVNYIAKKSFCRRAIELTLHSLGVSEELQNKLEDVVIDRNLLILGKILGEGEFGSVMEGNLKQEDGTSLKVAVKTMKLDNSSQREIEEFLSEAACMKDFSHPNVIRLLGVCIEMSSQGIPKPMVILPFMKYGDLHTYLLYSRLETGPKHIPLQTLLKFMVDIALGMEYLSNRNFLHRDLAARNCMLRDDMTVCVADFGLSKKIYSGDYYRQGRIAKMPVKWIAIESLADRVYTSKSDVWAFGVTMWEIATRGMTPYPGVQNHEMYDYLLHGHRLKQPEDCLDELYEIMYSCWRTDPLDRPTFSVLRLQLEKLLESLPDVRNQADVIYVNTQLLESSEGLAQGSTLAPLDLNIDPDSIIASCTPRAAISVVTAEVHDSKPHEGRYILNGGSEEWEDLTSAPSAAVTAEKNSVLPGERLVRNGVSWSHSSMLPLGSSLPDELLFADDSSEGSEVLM

`CCNc1cc2c(cn1)c(C1CCNC1)nn2[C@H]1CC[C@@H](Oc2nccc(C(F)(F)F)c2F)CC1` (stereo partly drawn) [Example 320, N-ethyl-1-((1s,4s)-4-((3-fluoro-4-(trifluoromethyl)pyridin-2-yl)oxy)cyclohexyl)-3-(pyrrolidin-3-yl)-1H-pyrazolo[4,3-c]pyridin-6-amine]: the results for the IC50 in test [1], in test [2] and in test [3] were under 10 nM, under 10 nM and 10 to 100 nM, respectively.

For `CNc1cc2c(cn1)c(-c1ccc(S(C)(=O)=O)cc1)nn2[C@H]1CC[C@@H](Oc2cn(C)nc2C(F)(F)F)CC1` [Example 284, N-methyl-1-((1s,4s)-4-((1-methyl-3-(trifluoromethyl)-1H-pyrazol-4-yl)oxy)cyclohexyl)-3-(4-(methylsulfonyl)phenyl)-1H-pyrazolo[4,3-c]pyridin-6-amine], the IC50 in test [1], in test [2] and in test [3] was under 10 nM each time.

With `CNc1cc2c(cn1)c(-c1cnn(C(CO)CO)c1)nn2[C@H]1CC[C@@H](Oc2ccccc2F)CC1` [Example 408, 2-(4-(1-((1s,4s)-4-(2-fluorophenoxy)cyclohexyl)-6-(methylamino)-1H-pyrazolo[4,3-c]pyridin-3-yl)-1H-pyrazol-1-yl)propane-1,3-diol], the IC50 in test [1] is under 10 nM; in test [2], under 10 nM; in test [3] it was 10 to 100 nM.

For `CCNc1cc2c(cn1)c(N1CCC(N3CCN(C)CC3)CC1)nn2[C@H]1CC[C@@H](Oc2nccc(C(F)(F)F)c2F)CC1` [Example 489, N-ethyl-1-((1s,4s)-4((3-fluoro-4-(trifluoromethyl)pyridin-2-yl)oxy)cyclohexyl)-3-(4-(4-methylpiperazin-1-yl)piperidin-1-yl)-1H-pyrazolo[4,3-c]pyridin-6-amine], the IC50 in test [1] was under 10 nM; in test [2], under 10 nM; in test [3], 10 to 100 nM.

Consider `CCNc1cc2c(cn1)c(-c1cnn(C)c1)nn2[C@H]1CC[C@@H](Oc2nccnc2C(F)(F)F)CC1` [Example 194, N-ethyl-3-(1-methyl-1H-pyrazol-4-yl)-1-((1s,4s)-4-((3-(trifluoromethyl)pyrazin-2-yl)oxy)cyclohexyl)-1H-pyrazolo[4,3-c]pyridin-6-amine], for which the IC50 in test [1], in test [2] and in test [3] was under 10 nM each time.

On to `CCNc1cc2c(cn1)c(N1CC[C@H](O)C1)nn2[C@H]1CC[C@@H](Oc2nccc(C(F)(F)F)c2F)CC1` [Example 336, (S)-1-(6-(ethylamino)-1-((1s,4R)-4-((3-fluoro-4-(trifluoromethyl)pyridin-2-yl)oxy)cyclohexyl)-1H-pyrazolo[4,3-c]pyridin-3-yl)pyrrolidin-3-ol], for which the IC50 is under 10 nM in test [1], under 10 nM in test [2] and 10 to 100 nM in test [3].

Take `CCNc1cc2c(cn1)c(-c1ccc3c(c1)CNS3(=O)=O)nn2[C@H]1CC[C@@H](Oc2cn(C)nc2C(F)(F)F)CC1` [Example 221, 5-(6-(ethylamino)-1-((1s,4s)-4-((1-methyl-3-(trifluoromethyl)-1H-pyrazol-4-yl)oxy)cyclohexyl)-1H-pyrazolo[4,3-c]pyridin-3-yl)-2,3-dihydrobenzo[d]isothiazole 1,1-dioxide]: the IC50 in test [1], in test [2] and in test [3] was under 10 nM in each case.

For the molecule `CCNc1cc2c(cn1)c(-c1cnn(C[C@@H](O)CO)c1)nn2[C@H]1CC[C@@H](Oc2nccc(C#N)c2F)CC1` [Example 487, 2-(((1S,4s)-4-(3-(1-((R)-2,3-dihydroxypropyl)-1H-pyrazol-4-yl)-6-(ethylamino)-1H-pyrazolo[4,3-c]pyridin-1-yl)cyclohexyl)oxy)-3-fluoroisonicotinonitrile], the concentration for half-maximal inhibition (IC50) in test [1], in test [2] and in test [3] was under 10 nM in each case.

With `CCn1c(O[C@H]2CC[C@@H](n3nc(-c4cnn(C)c4)c4cnc(NC)cc43)CC2)cccc1=O` [Example 111, 1-ethyl-6-(((1s,4s)-4-(3-(1-methyl-1H-pyrazol-4-yl)-6-(methylamino)-1H-pyrazolo[4,3-c]pyridin-1-yl)cyclohexyl)oxy)pyridin-2(1H)-one], the IC50 was under 10 nM in test [1], under 10 nM in test [2] and 10 to 100 nM in test [3].

For the molecule `CCNc1cc2c(cn1)c(-c1cnn(C[C@H](O)[C@H](C)O)c1)nn2[C@H]1CC[C@@H](Oc2nccc(C(F)(F)F)c2F)CC1` [Example 239, (2S,3S)-1-(4-(6-(ethylamino)-1-((1s,4R)-4-((3-fluoro-4-(trifluoromethyl)pyridin-2-yl)oxy)cyclohexyl)-1H-pyrazolo[4,3-c]pyridin-3-yl)-1H-pyrazol-1-yl)butane-2,3-diol], the IC50 in test [1], in test [2] and in test [3] was under 10 nM throughout.

In the case of `CNC(=O)c1ccc(O[C@H]2CC[C@@H](n3nc(-c4cnn(C)c4)c4cnc(NC)cc43)CC2)c(C(F)(F)F)c1` [Example 393, N-methyl-4-(((1s,4s)-4-(3-(1-methyl-1H-pyrazol-4-yl)-6-(methylamino)-1H-pyrazolo[4,3-c]pyridin-1-yl)cyclohexyl)oxy)-3-(trifluoromethyl)benzamide], the IC50 in test [1] was under 10 nM; in test [2] it was under 10 nM; in test [3], 10 to 100 nM.

In the case of `CNc1cc2c(cn1)c(-c1cnn(C)c1)nn2[C@H]1CC[C@@H](Oc2cccc3ncccc23)CC1` [Example 377, N-methyl-3-(1-methyl-1H-pyrazol-4-yl)-1-((1s,4s)-4-(quinolin-5-yloxy)cyclohexyl)-1H-pyrazolo[4,3-c]pyridin-6-amine], the IC50 in test [1], in test [2] and in test [3] was under 10 nM in each case.

On to `CNc1cc2c(cn1)c(-c1cnn(C(C)(C)C#N)c1)nn2[C@H]1CC[C@@H](Oc2cnn(C)c2C(F)(F)F)CC1` [Example 263, 2-methyl-2-(4-(1-((1s,4s)-4-((1-methyl-5-(trifluoromethyl)-1H-pyrazol-4-yl)oxy)cyclohexyl)-6-(methylamino)-1H-pyrazolo[4,3-c]pyridin-3-yl)-1H-pyrazol-1-yl)propanenitrile], for which the IC50 in test [1] is under 10 nM; in test [2] it was under 10 nM; in test [3], 100 to 1000 nM.

As to `CCNc1cc2c(cn1)c(-c1ccc(CN3CCN(C)CC3)cc1)nn2[C@H]1CC[C@@H](Oc2nccc(C(F)(F)F)c2F)CC1` [Example 261, N-ethyl-1-((1s,4s)-4-((3-fluoro-4-(tnfluoromethyl)pyridin-2-yl)oxy)cyclohexyl)-3-(4-((4-methylpiperazin-1-yl)methyl)phenyl)-1H-pyrazolo[4,3-c]pyridin-6-amine], the IC50 was under 10 nM in test [1], under 10 nM in test [2] and 10 to 100 nM in test [3].

For the molecule `CCNc1cc2c(cn1)c(C1CCN(C(C)C)CC1)nn2[C@H]1CC[C@@H](Oc2nccc(C(F)(F)F)c2F)CC1` [Example 326, N-ethyl-1-((1s,4s)-4-((3-fluoro-4-(trifluoromethyl)pyridin-2-yl)oxy)cyclohexyl)-3-(1-isopropylpiperidin-4-yl)-1H-pyrazolo[4,3-c]pyridin-6-amine], the results for the IC50 in test [1], in test [2] and in test [3] were under 10 nM, under 10 nM and 10 to 100 nM, respectively.

Turning to `CNc1cc2c(cn1)c(-c1ccc(C3(N4CCN(C)CC4)CC3)cc1)nn2[C@H]1CC[C@@H](Oc2ccc(=O)n(C)n2)CC1` [Example 53, 2-methyl-6-(((1s,4s)-4-(6-(methylamino)-3-(4-(1-(4-methylpiperazin-1-yl)cyclopropyl)phenyl)-1H-pyrazolo[4,3-c]pyridin-1-yl)cyclohexyl)oxy)pyridazin-3(2H)-one], the values for the IC50 in test [1], in test [2] and in test [3] were under 10 nM, under 10 nM and 100 to 1000 nM, respectively.

On to `CCNc1cc2c(cn1)c(-c1cnn([C@H]3CC[C@H](O)CC3)c1)nn2[C@H]1CC[C@@H](Oc2nccc(C(F)(F)F)c2F)CC1` [Example 272, (1R,4r)-4-(4-(6-(ethylamino)-1-((1s,4S)-4-((3-fluoro-4-(trifluoromethyl)pyridin-2-yl)oxy)cyclohexyl)-1H-pyrazolo[4,3-c]pyridin-3-yl)-1H-pyrazol-1-yl)cyclohexan-1-ol], for which the IC50 in test [1] is under 10 nM; in test [2], under 10 nM; in test [3] it was 10 to 100 nM.

Take `CCNc1cc2c(cn1)c(-c1cnn(C[C@@H](O)CO)c1)nn2[C@H]1CC[C@@H](Oc2cc(Cl)ccn2)CC1` [Example 246, (R)-3-(4-(1-((1s,4S)-4-((4-chloropyridin-2-yl)oxy)cyclohexyl)-6-(ethylamino)-1H-pyrazolo[4,3-c]pyridin-3-yl)-1H-pyrazol-1-yl)propane-1,2-diol]: the IC50 was under 10 nM in test [1], under 10 nM in test [2] and 10 to 100 nM in test [3].

Consider `CCNc1cc2c(cn1)c(-c1cnn(C[C@@H](O)C(C)(C)O)c1)nn2[C@H]1CC[C@@H](Oc2cccc(F)c2F)CC1` [Example 446, (R)-1-(4-(1-((1s,4S)-4-(2,3-difluorophenoxy)cyclohexyl)-6-(ethylamino)-1H-pyrazolo[4,3-c]pyridin-3-yl)-1H-pyrazol-1-yl)-3-methylbutane-2,3-diol], for which the concentration for half-maximal inhibition (IC50) in test [1], in test [2] and in test [3] was under 10 nM each time.

Take `CNc1cc2c(cn1)c(-c1cnn(C)c1)nn2[C@H]1CC[C@@H](Oc2cccc3ncc(F)cc23)CC1` [Example 384, 1-((1,4s)-4-((3-fluoroquinolin-5-yl)oxy)cyclohexyl)-N-methyl-3-(1-methyl-1H-pyrazol-4-yl)-1H-pyrazolo[4,3-c]pyridin-6-amine]: the IC50 in test [1], in test [2] and in test [3] was under 10 nM in each case.

The IC50 is the concentration that gives 50% inhibition.
